Data reported in patent publication US20100041647A1, “3-Substituted-[1,2,3]-Benzotriazinone compounds for enhancing glutamatergic synaptic responses” (CORTEX PHARMACEUTICALS, INC., priority 2007, published 2010).

Assays:
AMPA receptor [1] = assay: Patch clamp electrophysiology assay (glutamate-induced whole-cell current in cultured cortical neurons); assay type: cell-based; settings: Concentration at which glutamate induced current is increased by 100%; 500 μM glutamate, rat cortical neurons
Protocol: Cortical cells were prepared from day 18-19 embryonic Sprague-Dawley rats and recorded after 3 days in culture. The extracellular solution (ECS) contained (in mM): NaCl (145), KCl (5.4), HEPES (10), MgCl2 (0.8), CaCl2 (1.8), glucose (10), sucrose (30); pH. 7.4. In order to block the voltage-gated sodium currents, 40 nM TTX was added to the recording solution. The intracellular solution contained (in mM): K-gluconate (140), HEPES (20), EGTA (1.1), phosphocreatine (5), MgATP (3), GTP (0.3), MgCl2 (5), and CaCl2 (0.1); pH: 7.2. All test compound and glutamate solutions were made-up in the extracellular solution.
The whole-cell current was measured with patch-clamp amplifier (Axopatch 200B), filtered at 2 kHz, digitized at 5 kHz and recorded on a PC with pClamp 8. The cells were voltage-clamped at −80 mV. Solutions were applied by DAD-12 system. A baseline response for each cell was recorded using a I s pulse of 500 μM glutamate dissolved in ECS. Responses to test compound were then determined by application of a 10 s pulse of test compound followed by a 1 s pulse of the same concentration of test compound plus 500 μM glutamate and then 10 s of saline. This pulse sequence was repeated until a stable reading was obtained, or until sufficient data points were measured to allow extrapolation to a calculated maximum change.
The mean value of plateau current between 600 ms to 900 ms after application of glutamate or test compound plus glutamate was calculated and used as the parameter to measure the drug effect. The plateau responses in the presence of varying concentrations of test compound were divided by the baseline response in order to calculate the percentage increase. Compounds are deemed active in this test if, at a test concentration of 3 μM or less, they produce a greater than 100% increase in the value of the steady-state current measured due to application of glutamate alone. The concentration at which the glutamate induced current is increased by 100% is commonly referred to as the EC2x value.

AMPA receptors = assay: Rat hippocampal slice assay (field EPSP in CA1); assay type: cell-based
Protocol: (§1) In another test, excitatory responses (field EPSPs) were measured in hippocampal slices, which were maintained in a recording chamber continuously perfused with artificial cerebrospinal fluid (ACSF). During a 15-30 minute interval, the perfusion medium was switched to one containing various concentrations of the test compounds. Responses collected immediately before and at the end of drug perfusion were superimposed in order to calculate the percent increase in EPSP amplitude.
The field EPSP (excitatory post-synaptic potential) recorded in field CA1 after stimulation of CA3 axons is known to be mediated by AMPA receptors, which are present in the synapses (Kessler et al., Brain Res. 560: 337-341 (1991)). Drugs that selectively block the receptor selectively block the field EPSP (Muller et al., Science, supra). […] These effects are mirrored in the field EPSP (see, for example, Staubli et al., Psychobiology, supra; Xiao et al., Hippocampus, supra; Staubli et al., Hippocampus 2: 4958 (1992)).
To obtain data for the activity of invention compounds on synaptic responses, a bipolar nichrome stimulating electrode was positioned in the dendritic layer (stratum radiatum) of the hippocampal subfield CA1 close to the border of subfield CA3, as described in Example 30. Current pulses (0.1 msec) through the stimulating electrode activate a population of the Schaffer-commissural (SC) fibers, which arise from neurons in the subdivision CA3 and terminate in synapses on the dendrites of CA1 neurons. Activation of these synapses causes them to release the transmitter glutamate. Glutamate binds to post-synaptic AMPA receptors, which then transiently open an associated ion channel and permit a sodium current to enter the postsynaptic cell. This current results in a voltage in the extracellular space (the field EPSP), which is recorded by a high impedance recording electrode positioned in the middle of the stratum radiatum of CA1.
The intensity of the stimulation current was adjusted to produce half-maximal EPSPs (typically about 1.5-2.0 mV). Paired stimulation pulses were given every 40 sec with an interpulse interval of 200 msec, as described further in Example 30.
as §1, with “Hippocampal slices” for “In another test, excitatory responses (field EPSPs) were measured in hippocampal slices, which”, “During” for “During a”, “intervals,” for “interval,”

AMPA receptor [2] = assay: In vivo electrophysiology (field EPSP in dentate gyrus of anesthetized animals); set-up: species or system rat
Protocol: The physiological effects of invention compounds were tested in vivo in anesthetized animals according to the following procedures.
Animals are maintained under anesthesia by phenobarbital administered using a Hamilton syringe pump. Stimulating and recording electrodes are inserted into the perforant path and dentate gyrus of the hippocampus, respectively. Once electrodes are implanted, a stable baseline of evoked responses are elicited using single monophasic pulses (100 μs pulse duration) delivered at 3/min to the stimulating electrode. Field EPSPs are monitored until a stable baseline is achieved (about 20-30 min), after which a solution of test compound in HPCD is injected intraperitoneally and evoked field potentials are recorded. Evoked potentials are recorded for approximately 2 h following drug administration or until the amplitude of the field EPSP returns to baseline. In the latter instance, it is common that an iv administration is also carried out with an appropriate dose of the same test compound.

SMILES | In vitro Patch Clamp Electrophysiology EC2x (AMPA receptor [1]) [nM] | % Increase in the amplitude of the field EPSP in the CA1 region of rat hippocampal slice (AMPA receptors; @ 3 μM) [% @ 3 μM] | % increase in the amplitude of the field EPSP in rat dentate gyrus (AMPA receptor [2]; 5 mpk i.p.) [%^3] | % increase in the amplitude of the field EPSP in rat dentate gyrus (AMPA receptor [2]; 5 mpk i.v.) [%^4] | % Increase in the amplitude of the field EPSP in the CA1 region of rat hippocampal slice (AMPA receptors; @ 10 μM) [% @ 10 μM]
O=C1c2cc3nnn(CCc4cccc(F)c4)c(=O)c3cc2OC2CCCN12 (stereo not drawn) [Example 1, 3-[2-(3-Fluorophenyl)ethyl]-6a,7,8,9-tetrahydro-3H-pyrrolo[2′,1′:2,3][1,3]oxazino[6,5-g][1,2,3]benzotriazine-4,11-dione] | 3 | 9 | 24 | – | –
O=C1c2cc3nnn(C4CC4)c(=O)c3cc2OC2CCCN12 (stereo not drawn) [Example 4, 3-Cyclopropyl-6a,7,8,9-tetrahydro-3H-pyrrolo[2′,1′:2,3][1,3]oxazino[6,5-g][1,2,3]benzotriazine-4,11-dione] | 400 | 5 | – | 19 | –
C#CCn1nnc2cc3c(cc2c1=O)OC1CCCN1C3=O (stereo not drawn) [Example 9, 3-Prop-2-yn-1-yl-6a,7,8,9-tetrahydro-3H-pyrrolo[2′,1′:2,3][1,3]oxazino[6,5-g][1,2,3]benzotriazine4,11-dione] | 140 | 11 | – | 11 | –
N#CCn1nnc2cc3c(cc2c1=O)OC1CCCN1C3=O (stereo not drawn) [Example 10, (4,11-Dioxo-4,6a,7,8,9,11-hexahydro-3H-pyrrolo[2′,1′:2,3][1,3]oxazino[6,5-g][1,2,3]benzotriazin-3-yl)acetonitrile] | 190 | – | 12 | – | 10
C#C[C@H](Cc1cc(F)cc(F)c1)n1nnc2cc3c(cc2c1=O)O[C@@H]1CCCN1C3=O [Example 16, (6aR)-3-[(2S)-1-(3,5-Difluorophenyl)but-3-yn-2-yl]-6a,7,8,9-tetrahydro-3H-pyrrolo[2′,1′:2,3][1,3]oxazino[6,5-g][1,2,3]benzotriazine-4,11-dione] | 3 | 1 | 34 | – | –
C[C@H](CSC#N)n1nnc2cc3c(cc2c1=O)OC1CCCN1C3=O (stereo partly drawn) [Example 35, (2R)-2-(4,11-Dioxo-4,6a,7,8.9,11-hexahydro-3H-pyrrolo[2′,1′:2,3][1,3]oxazino[6,5-g][1,2,3]benzotriazin-3-yl)propyl thiocyanate] | 80 | – | 19 | – | –
O=C1c2cc3nnn(CCn4cccn4)c(=O)c3cc2OC2CCCN12 (stereo not drawn) [Example 36, 3-[2-(1H-Pyrazol-1-yl)ethyl]-6a,7,8,9-tetrahydro-3H-pyrrolo[2′,1′:2,3][1,3]oxazino[6,5-g][1,2,3]benzotriazine-4,11-dione] | 100 | 12 | – | 18 | –
C[C@H](Cn1ncnn1)n1nnc2cc3c(cc2c1=O)OC1CCCN1C3=O (stereo partly drawn) [Example 37A, 3-[(2R)-1-(2H-Tetrazol-2-yl)propan-2-yl]-6a,7,8,9-tetrahydro-3H-pyrrolo[2′,1′:2,3][1,3]oxazino[6,5-g][1,2,3]benzotriazine-4,11-dione] | 40 | – | 39 | – | –
C[C@H](Cn1ncnn1)n1nnc2cc3c(cc2c1=O)OC1COCCN1C3=O (stereo partly drawn) [Example 64, 3-[(2R)-1-(2H-Tetrazol-2-yl)propan-2-yl]-6a,7,9,10-tetrahydro-3H-[1,4]oxazino[3′,4′:2,3][1,3]oxazino[6,5-g][1,2,3]benzotriazine-4,12-dione] | 170 | – | 30 | – | –
